Measured values from publication PMC8700061, “Fragment-Sized and Bidentate (Immuno)Proteasome Inhibitors Derived from Cysteine and Threonine Targeting Warheads” (Cells, 2021).
Marks after values point to notes of the source that are not given here.

Experiments:
β5i subunit of human iCP [1] = molecular target: T1, β5i subunit of human iCP (Homo sapiens, UniProt P20618+P28062); assay: Inhibition of β5i activity (RA at 10 µM, IC50, IC50 shift), Suc-LLVY-AMC; assay type: biochemical; conditions: for Group efficiency (GE): ΔpIC50/ΔNheavy with compound 1 as reference; for RA (%) at 10 µM, β5i: 10 µM compound, 30 min pre-incubation, SDS activator
T1 construct: purchased Boston Biochem, Inc., Cambridge, MA, USA
Procedure: Residual activity measurements were performed at 10 μM final concentrations in the assay buffer (0.01% SDS, 50 mM Tris-HCl, 0.5 mM EDTA, pH 7.4). Stock solutions of the compounds were prepared in DMSO. To 50 μL of each compound in buffer, 25 μL of 0.8 nM human iCP or human cCP (both from Boston Biochem, Inc., Cambridge, MA, USA) were added. After incubation at 37 °C for 30 min, the reaction was started by adding of 25 μL of 100 μM relevant fluorogenic substrate: acetyl-Nle-Pro-Nle-Asp-AMC (Ac-nLPnLD-AMC, (Bachem, Bubendorf, Switzerland)) for β1, acetyl-Pro-Ala-Leu-7-amino-4-methylcoumarin (Ac-PAL-AMC, (Boston Biochem, Inc., Cambridge, MA, USA)) for β1i, t-butyloxycarbonyl-Leu-Arg-Arg-7-amino-4-methylcoumarin (Boc-LRR-AMC, (Bachem, Bubendorf, Switzerland)) for β2 and β2i, succinyl-Leu-Leu-Val-Tyr-7-amino-4-methylcoumarin (Suc-LLVY-AMC) (Bachem, Bubendorf, Switzerland) for β5 and β5i. Reaction progress was recorded on BioTek Synergy HT microplate reader by monitoring fluorescence at 460 nm (λex = 360 nm) for 90 min at 37 °C. The initial linear ranges were used to calculate velocity and determine residual activity. In the case of evaluation of β1, βi, β2, and β2i activities, the assay buffer was modified by replacing SDS with the proteasomal activator PA28α (Boston Biochem, Inc., Cambridge, MA, USA).
Final assay mixtures contained 0.2 nM human iCP or 0.2 nM human cCP in assay buffer (0.01% SDS (or PA28α in cases of β1, β1i subunits), 50 mM Tris-HCl, 0.5 mM EDTA, pH 7.4). Inhibitors were dissolved in DMSO and added to the black 96-well plates for at least eight different concentrations (the final concentration of DMSO was not more than 1%). […] Fluorescence was monitored at 460 nm (λex = 360 nm) for 90 min at 37 °C. The progress of the reactions was recorded and the initial linear ranges were used to calculate the velocity. IC50 values were calculated using GraphPadPrism (GraphPad Software, San Diego, CA, USA) and are means from at least three independent determinations.

β5i subunit of human iCP [2] = molecular target: T1, β5i subunit of human iCP; design: method as in PMID 33894528; conditions: limited stability of compounds after 1 h in assay buffer; read-out: IC50 (µM) against the β5i subunit of human iCP; cited from earlier work
[3] = HPLC-based stability assay in PBS; assay type: physicochemical; conditions: PBS pH 7.4
Procedure: (§1) GSH reactivity assay was performed as described by Petri et al.; 500 μM solution of compound (PBS buffer pH 7.4, 10% MeCN, 250 μL) with 200 μM solution of indoprofen as internal standard were added to 10 mM GSH solution (dissolved in PBS buffer, 250 μL) in a 1:1 ratio. The final concentration was 250 μM compound, 100 μM indoprofen, 5 mM GSH and 5% MeCN (500 μL). The final mixture was analyzed by HPLC after 0, 1, 2, 4, 8, 12, 24, 48, and 72 h. The degradation kinetics were also studied using the method described in [24], except that pure PBS buffer was used instead of GSH solution. In this experiment, the final concentration of the mixture was 250 μM fragment, 100 μM indoprofen and 5% MeCN. The area under the curve (AUC) values were determined by integrating the HPLC spectra and then corrected with the internal standard.

[4] = HPLC-based GSH reactivity assay; assay type: physicochemical; conditions: 250 µM compound, 5 mM GSH, PBS pH 7.4
Procedure: as §1, with “The final concentration was 250 μM compound, 100 μM indoprofen, 5 mM GSH and 5% MeCN (500 μL).” left out, “In this experiment, the final concentration of the mixture was 250 μM fragment, 100 μM indoprofen and 5% MeCN.” left out

[5] = UV-Vis-based stability assay in buffer; assay type: physicochemical; conditions: after 1 h, assay buffer pH 7.4, 37 °C, 50 µM
Procedure: The aqueous stability of all compounds was determined spectrophotometrically by following the changes in the absorption spectra of the compounds. The buffer solution (50 mM Tris-HCl, 0.5 mM EDTA, pH 7.4) was pre-incubated at 37 °C. Aliquots of the compounds studied (1 mM in DMSO) were transferred to a 96-well flat-bottom UV-transparent microplate (Corning, CLS3635, Corning Inc, Corning, NY, USA) containing the buffer solution to obtain a 50 μM solution containing 5% DMSO (final volume, 300 μL). The plate was incubated without lid at 37 °C in a plate reader (Synergy H4, BioTek Instruments, Inc., Santa Clara, CA, USA) and the absorbance spectrum (244–400 nm) was acquired in sweep mode after 0, 15, 30, 60, 120, 180, and 240 min using a discontinuous kinetic procedure in Gen5 software (BioTek Instruments, Inc., Santa Clara, CA, USA). The time required to read the entire plate was 3 min. To determine the baseline, the compound solution was replaced with pure DMSO and subtracted from each reading. Compounds with an absorbance maximum of less than 0.20 AU were not evaluated using these assays due to the high experimental error. For other compounds, the relative absorbance difference between the first time point and 60 min at the most responsive wavelength was calculated. If the relative absorbance difference for the compound in the buffer was below 0.1, between 0.1–0.2, and above 0.2, the compound was classified as stable, intermediate, and unstable, respectively.

GSH = assay: HPLC-based GSH reactivity assay; assay type: physicochemical; conditions: 5 mM glutathione (GSH) in PBS buffer; 250 µM compound, 5 mM GSH, PBS pH 7.4; read-out: Reactivity with GSH (HPLC-based assay), t1/2
Procedure: as §1, with “The final concentration was 250 μM compound, 100 μM indoprofen, 5 mM GSH and 5% MeCN (500 μL).” left out, “In this experiment, the final concentration of the mixture was 250 μM fragment, 100 μM indoprofen and 5% MeCN.” left out

β5 subunit of human cCP = molecular target: T2, β5 subunit of human cCP (Homo sapiens, UniProt P20618+P28074); assay: Inhibition of β5 activity (RA, IC50), Suc-LLVY-AMC; assay type: biochemical
T2 construct: purchased Boston Biochem, Inc., Cambridge, MA, USA

human iCP (β5i) = molecular target: T3, human iCP (β5i) (Homo sapiens, UniProt P20618+P28062); assay: Screening of heterocyclic electrophilic compounds at 500 µM (β5i); assay type: biochemical; conditions: 30 min incubation
T3 construct: purchased Boston Biochem, Inc., Cambridge, MA, USA
Procedure: Screening of heterocyclic electrophilic compounds was performed at concentration of 500 µM in assay buffer (0.01% SDS, 50 mM Tris-HCl, 0.5 mM EDTA, pH 7.4). To 50 µL of each compound in buffer, 25 µL of 0.8 nM human iCP (Boston Biochem, Inc., Cambridge, MA, USA) was added. After 30 min incubation at 37 °C, the reaction was started by adding of 25 µL of […] Suc-LLVY-AMC (Bachem, Bubendorf, Switzerland), final concentration 25 µM). The reaction progress was recorded on BioTek Synergy HT microplate reader by monitoring fluorescence at 460 nm (λex = 360 nm) for 90 min at 37 °C. The initial linear ranges were used to calculate the velocity and determine the residual activity.

SMILES	Group efficiency (GE) (β5i subunit of human iCP [1])	IC50 (β5i subunit of human iCP [2]) [µM]	Stability in Buffer (HPLC-based assay) [3]	other results
N#Cc1nc2cccc(Cl)c2o1 [Compound 4]	0.92	10 ± 4.6	–	–
N#Cc1nc2ccc(Cl)cc2o1 [Compound 3]	0.96	9.1 ± 4.5	–	–
Cc1ccc2nc(C#N)oc2c1 [Compound 5]	–	–	low absorbance ^c/stable ^d	RA (%) at 10 µM, β5i (β5i subunit of human iCP [1]): 81 ± 4%; Reactivity with GSH (HPLC-based assay), t1/2 [4]: < 3 min
COc1cccc2nc(C#N)oc12 [Compound 9]	0.61	–	stable ^c,d	RA (%) at 10 µM, β5i (β5i subunit of human iCP [1]): 20 ± 6% ^f; RA (%) at 10 µM, β5i (β5i subunit of human iCP [1]; listed as 7-OMe): 20%; Stability in Buffer (UV-Vis-based assay) [5]: stable ^c,d (relative absorbance difference for the compound in the buffer was below 0.1); half-life at 250 µM (GSH): < 3 min
N#Cc1nc2cc(Cl)ccc2o1 [Compound 2]	0.09	67 ± 11	–	–
N#Cc1nc2ccc(N)cc2o1 [Compound 22]	–	–	stable ^c,d	Stability in Buffer (UV-Vis-based assay) [5]: stable ^c,d (relative absorbance difference for the compound in the buffer was below 0.1); Reactivity with GSH (HPLC-based assay), t1/2 [4]: < 3 min
CC(C)C[C@H](NC(=O)[C@H](CCc1ccccc1)NC(=O)CN1CCOCC1)C(=O)N[C@@H](Cc1ccccc1)C(=O)N[C@@H](CC(C)C)C(=O)[C@@]1(C)CO1 [carfilzomib]	–	–	–	β5 RA at 10 nM (control) (β5 subunit of human cCP): 25 ± 1%
N#Cc1nc2ccccc2o1 [Compound 1, benzoxazole-2-carbonitrile]	–	83 ± 6	–	–
C=Cc1nccs1 [XXI, 2-vinylthiazole]	–	–	–	RA at 500 µM [%] (β5i) (human iCP (β5i)): 5 ± 3%
